According to patent US11161862B2, “Phosphonium-ion tethered tetracycline drugs for treatment of cancer” (Oxford University Innovation Limited, priority 2017, dated 2021):
Structures can show the parent of a compound that is named as a salt.

test system: MDA-231 cancer cells; experiment: Inhibition of proliferation assay: cell confluence (IncuCyte live cell imaging); assay type: cell-based; conditions: MDA-231 cells; concentration 10 μM; IncuCyte imaging every 3 h over 4-5 d; relative confluence normalised to time zero
From the text: Inhibition of Proliferation Assay
The confluence value is a surrogate for cell proliferation and growth. The value is expressed as a percent confluence, which represents the fraction of culture dish-surface that is occupied by cells. As the number of cells in the dish increases over time due to proliferation, so will their coverage of that surface increase. Expansion of the cell population on the cell culture-dish surface and confluence have mostly a linear relationship until the cells on the plate surface begin to reach saturation or maximum density.
Confluence is determined based on image analysis. Image based software can identify objects in the image field base on changes to pixel density in a grey scale image. The software can then assign a mask to those pixels within the object. Objects can be ‘gated’ out based on size and shape. To determine cell confluence, images of cells are first masked as objects. The surface area of the image that is masked is measured and compared to the total surface area of the culture dish surface to obtain a percent confluence.
MDA-231 cancer cells were obtained from ATCC. Cells were cultured in Dulbecco's Modified Eagle Medium (DMEM) supplemented with 10% Fetal Bovine Serum (FBS), 2 mM Glutamax, 1 mM Non Essential Amino Acid (NEAA) solution and 1 mM sodium pyruvate. […] Final DMSO concentrations were […]. Images were acquired with an IncuCyte Live Cell Imaging microscopy (Essen Bioscience) at every 3 h under cell culture conditions with 10× objective over 4-5 d. Cell confluence was calculated from one field of view per well using the IncuCyte in-built algorithm. Relative confluence values were obtained by normalising each value to the time zero value in each sample.

Structure (SMILES)	% Confluence [%]
C[C@H]1c2cccc(O)c2C(=O)C2=C(O)[C@]3(O)C(=O)C(C(N)=O)=C(O)[C@@H](N(C)C)[C@@H]3[C@@H](O)[C@@H]21 [Doxycycline, reference compound]	98.7
COc1ccc([P+](CCCCCCCCCCCC(=O)Nc2ccc3c(c2O)C(=O)C2=C(O)[C@]4(O)C(=O)C(C(N)=O)=C(O)[C@@H](N(C)C)[C@@H]4[C@@H](O)[C@@H]2[C@H]3C)(c2ccc(OC)cc2)c2ccc(OC)cc2)cc1 [Example 1, (11-{[(5R,5aR,6S,6aR,7S,10aS)-9-carbamoyl-7-(dimethylamino)-1,6,8,10a,11-pentahydroxy-5-methyl-10,12-dioxo-5,5a,6,6a,7,10,10a,12-octahydrotetracen-2-yl]carbamoyl}undecyl)tris(4-methoxyphenyl)phosphonium formate]	17
C[C@H]1c2ccc(NC(=O)CCCCCCC[P+](C)(c3ccccc3)c3ccccc3)c(O)c2C(=O)C2=C(O)[C@]3(O)C(=O)C(C(N)=O)=C(O)[C@@H](N(C)C)[C@@H]3[C@@H](O)[C@@H]21.[Cl-] [Example 2, (7-{[(5R,5aR,6S,6aR,7S,10aS)-9-carbamoyl-7-(dimethylamino)-1,6,8,10a,11-pentahydroxy-5-methyl-10,12-dioxo-5,5a,6,6a,7,10,10a,12-octahydrotetracen-2-yl]carbamoyl}heptyl)(methyl)diphenylphosphonium chloride]	91.7
C[C@H]1c2ccc(NC(=O)CCCCCCC[P+](C)(C)c3ccccc3)c(O)c2C(=O)C2=C(O)[C@]3(O)C(=O)C(C(N)=O)=C(O)[C@@H](N(C)C)[C@@H]3[C@@H](O)[C@@H]21.[Cl-] [Example 3, (7-{[(5R,5aR,6S,6aR,7S,10aS)-9-carbamoyl-7-(dimethylamino)-1,6,8,10a,11-pentahydroxy-5-methyl-10,12-dioxo-5,5a,6,6a,7,10,10a,12-octahydrotetracen-2-yl]carbamoyl}heptyl)dimethylphenylphosphonium chloride]	62.5
C[C@H]1c2ccc(NC(=O)CCCCCCC[P+](C)(C)C)c(O)c2C(=O)C2=C(O)[C@]3(O)C(=O)C(C(N)=O)=C(O)[C@@H](N(C)C)[C@@H]3[C@@H](O)[C@@H]21.[Cl-] [Example 4, (7-{[(5R,5aR,6S,6aR,7S,10aS)-9-carbamoyl-7-(dimethylamino)-1,6,8,10a,11-pentahydroxy-5-methyl-10,12-dioxo-5,5a,6,6a,7,10,10a,12-octahydrotetracen-2-yl]carbamoyl}heptyl)trimethylphosphonium chloride]	111.8
C[C@H]1c2ccc(NC(=O)CCCCCCCCCCC[P+](C)(c3ccccc3)c3ccccc3)c(O)c2C(=O)C2=C(O)[C@]3(O)C(=O)C(C(N)=O)=C(O)[C@@H](N(C)C)[C@@H]3[C@@H](O)[C@@H]21.[Cl-] [Example 5, (11-{[(5R,5aR,6S,6aR,7S,10aS)-9-carbamoyl-7-(dimethylamino)-1,6,8,10a,11-pentahydroxy-5-methyl-10,12-dioxo-5,5a,6,6a,7,10,10a,12-octahydrotetracen-2-yl]carbamoyl}undecyl)(methyl)diphenylphosphonium chloride]	24.9
C[C@H]1c2ccc(NC(=O)CCCCCCCCCCC[P+](C)(C)C)c(O)c2C(=O)C2=C(O)[C@]3(O)C(=O)C(C(N)=O)=C(O)[C@@H](N(C)C)[C@@H]3[C@@H](O)[C@@H]21.[Cl-] [Example 6, (11-{[(5R,5aR,6S,6aR,7S,10aS)-9-carbamoyl-7-(dimethylamino)-1,6,8,10a,11-pentahydroxy-5-methyl-10,12-dioxo-5,5a,6,6a,7,10,10a,12-octahydrotetracen-2-yl]carbamoyl}undecyl)trimethylphosphonium chloride]	57.7
Cc1cccc([P+](CCCCCCCCCCCC(=O)Nc2ccc3c(c2O)C(=O)C2=C(O)[C@]4(O)C(=O)C(C(N)=O)=C(O)[C@@H](N(C)C)[C@@H]4[C@@H](O)[C@@H]2[C@H]3C)(c2cccc(C)c2)c2cccc(C)c2)c1.[Cl-] [Example 7, (11-{[(5R,5aR,6S,6aR,7S,10aS)-9-carbamoyl-7-(dimethylamino)-1,6,8,10a,11-pentahydroxy-5-methyl-10,12-dioxo-5,5a,6,6a,7,10,10a,12-octahydrotetracen-2-yl]carbamoyl}undecyl)tris(3-methylphenyl)phosphonium chloride]	29.4
C[C@H]1c2ccc(NC(=O)CCCCCCC[P+](c3ccccc3)(c3ccccc3)c3cnn(C)c3)c(O)c2C(=O)C2=C(O)[C@]3(O)C(=O)C(C(N)=O)=C(O)[C@@H](N(C)C)[C@@H]3[C@@H](O)[C@@H]21.[Cl-] [Example 8, (7-{[(5R,5aR,6S,6aR,7S,10aS)-9-carbamoyl-7-(dimethylamino)-1,6,8,10a,11-pentahydroxy-5-methyl-10,12-dioxo-5,5a,6,6a,7,10,10a,12-octahydrotetracen-2-yl]carbamoyl}heptyl)(1-methyl-1H-pyrazol-4-yl)diphenylphosphonium chloride]	45.6
C[C@H]1c2ccc(NC(=O)CCCCCCCC[P+](c3ccccc3)(c3ccccc3)c3cnn(C)c3)c(O)c2C(=O)C2=C(O)[C@]3(O)C(=O)C(C(N)=O)=C(O)[C@@H](N(C)C)[C@@H]3[C@@H](O)[C@@H]21.[Cl-] [Example 9, (8-{[(5R,5aR,6S,6aR,7S,10aS)-9-carbamoyl-7-(dimethylamino)-1,6,8,10a,11-pentahydroxy-5-methyl-10,12-dioxo-5,5a,6,6a,7,10,10a,12-octahydrotetracen-2-yl]carbamoyl}octyl)(1-methyl-1H-pyrazol-4-yl)diphenylphosphonium chloride]	55.5
C[C@H]1c2ccc(NC(=O)CCCCCCCCCCC[P+](c3ccccc3)(c3ccccc3)c3cnn(C)c3)c(O)c2C(=O)C2=C(O)[C@]3(O)C(=O)C(C(N)=O)=C(O)[C@@H](N(C)C)[C@@H]3[C@@H](O)[C@@H]21.[Cl-] [Example 10, (11-{[(5R,5aR,6S,6aR,7S,10aS)-9-carbamoyl-7-(dimethylamino)-1,6,8,10a,11-pentahydroxy-5-methyl-10,12-dioxo-5,5a,6,6a,7,10,10a,12-octahydrotetracen-2-yl]carbamoyl}undecyl)(1-methyl-1H-pyrazol-4-yl)diphenylphosphonium chloride]	12.4
C[C@H]1c2ccc(NC(=O)CCCCCCCCC[P+](c3ccccc3)(c3ccccc3)c3cnn(C)c3)c(O)c2C(=O)C2=C(O)[C@]3(O)C(=O)C(C(N)=O)=C(O)[C@@H](N(C)C)[C@@H]3[C@@H](O)[C@@H]21.[Cl-] [Example 11, (9-{[(5R,5aR,6S,6aR,7S,10aS)-9-carbamoyl-7-(dimethylamino)-1,6,8,10a,11-pentahydroxy-5-methyl-10,12-dioxo-5,5a,6,6a,7,10,10a,12-octahydrotetracen-2-yl]carbamoyl}nonyl)(1-methyl-1H-pyrazol-4-yl)diphenylphosphonium chloride]	70.1
C[C@H]1c2ccc(NC(=O)CCCCCCCCCC[P+](c3ccccc3)(c3ccccc3)c3cnn(C)c3)c(O)c2C(=O)C2=C(O)[C@]3(O)C(=O)C(C(N)=O)=C(O)[C@@H](N(C)C)[C@@H]3[C@@H](O)[C@@H]21.[Cl-] [Example 12, (10-{[(5R,5aR,6S,6aR,7S,10aS)-9-carbamoyl-7-(dimethylamino)-1,6,8,10a,11-pentahydroxy-5-methyl-10,12-dioxo-5,5a,6,6a,7,10,10a,12-octahydrotetracen-2-yl]carbamoyl}decyl)(1-methyl-1H-pyrazol-4-yl)diphenylphosphonium chloride]	45.4
CC(C)[P+](CCCCCCCCCCCC(=O)Nc1ccc2c(c1O)C(=O)C1=C(O)[C@]3(O)C(=O)C(C(N)=O)=C(O)[C@@H](N(C)C)[C@@H]3[C@@H](O)[C@@H]1[C@H]2C)(c1ccccc1)c1ccccc1 [Example 13, (11-{[(5R,5aR,6S,6aR,7S,10aS)-9-carbamoyl-7-(dimethylamino)-1,6,8,10a,11-pentahydroxy-5-methyl-10,12-dioxo-5,5a,6,6a,7,10,10a,12-octahydrotetracen-2-yl]carbamoyl}undecyl)diphenyl(propan-2-yl)phosphonium chloride]	35.1

same assay, conditions: MDA-231 cells; concentration 50 μM; IncuCyte imaging every 3 h over 4-5 d; relative confluence normalised to time zero

Structure (SMILES)	% Confluence [%]
C[C@H]1c2cccc(O)c2C(=O)C2=C(O)[C@]3(O)C(=O)C(C(N)=O)=C(O)[C@@H](N(C)C)[C@@H]3[C@@H](O)[C@@H]21 [Doxycycline, reference compound]	91
